According to patent US20110300229A1, “TREATING OR PREVENTING ROTAVIRUS INFECTION” (FONTERRA CO-OPERATIVE GROUP LIMITED, priority 2007, published 2011):
Values joined by “and” are separate entries in the source; they are usually repeats but may differ in a detail not shown here. Equal values may be shown once. Marks after values point to notes of the source that are not given here.

System: human rotavirus strain Wa
Assay: Rotavirus infection assay in HT29 cells (crystal violet, % uninfected cells)
Assay type: cell-based
Settings: for activity in preventing virus infection of the cells: over a range of concentrations
Procedure: The HT29 cell line was used to propagate the human rotavirus strain Wa (neuraminidase resistant) in the presence of 1 μg/ml trypsin in Dulbecco's minimal essential medium (DMEM) supplemented with 10% foetal calf serum and penicillin/streptomycin (100 μg/ml/100 units/ml). Rotavirus was harvested by freeze thawing twice, spun at 750 g to remove cell debris and stored at −80° C. The rotavirus was assayed and found to contain […] plaque forming units (pfu)/ml.
The infection assay used was based on a number of published assays (Scott et al 1979; Smith et al 1979; Guarino et al 1996; Superb et al 2001). Confluent HT29 cells grown in DMEM (seeded at 3×10^5/ml in 96 well plates) were washed twice in sterile PBS. Doubling dilutions of each of the products to be screened (initial concentration 5 mg/ml) were made in the plate in 50 μl volumes of DMEM. Virus was added (10^4 pfu/well) to all wells except the cells only control and plates were then incubated for two hours in 5% CO2 at 37° C. Other controls included virus plus cells, lipids only, pure GM3 and pure GD3. Following the two-hour incubation trypsin was added to all the wells containing virus at a concentration of 2 μg/ml—this step cleaves VP4 to polypeptides VP8 and VP5 and is needed for the virion to penetrate into the cells' interior. Plates were incubated at 37° C. in 5% CO2 for seven days and were checked daily for cytopathic effect in the virus only control wells. Media was removed and plates washed in sterile PBS, air-dried and fixed with methanol for one minute. Plates were air dried and then stained with 100 μl/well of 1% crystal violet (351884W, BDH, England) for five minutes. Plates were washed four times with sterile water to remove excess stain. 100 μl of acetic acid per well was added to solubilise the stain and absorbance was read at a wavelength of 595 nm in a Biorad ELISA plate reader. Each sample was assayed on a minimum of three separate occasions and the percentage of uninfected cells calculated.
Statistical analysis was performed using an unpaired Student t test (InStat for MacIntosh) to compare the effect of the lipid products derived from bovine milk with the virus only control at the lowest dilution of the product.

Substance | Percentage of HT29 cells uninfected by rotavirus (7.8125 μg/ml) | Percentage of HT29 cells uninfected by rotavirus (15.625 μg/ml) | Percentage of HT29 cells uninfected by rotavirus (31.25 μg/ml) | Percentage of HT29 cells uninfected by rotavirus (125 μg/ml) | activity in preventing virus infection of the cells | Percentage of HT29 cells uninfected by rotavirus (62.5 μg/ml) | Percentage of HT29 cells uninfected by rotavirus (250 μg/ml, mean +/− spread)
Monosialoganglioside GM3 | 34 +/− 1.5% | 33 +/− 2.5% | 43+/−10% | 49 +/− 8*** % | showed activity over a range of concentrations | – | –
disialoganglioside GD3 | – | 31 +/− 1.5% | 40+/−3% and 40 +/− 2.5*** % | – | showed activity over a range of concentrations | 59 +/− 1.4*** % | 57 +/− 1*** %
